This is an account of results in patent US6365572B1, “Low molecular weight peptide derivatives as inhibitors of the laminin/nidogen interaction” (Aventis Pharma Deutschland GmbH, priority 1999, dated 2002).

Read-outs that look alike come from different tables or passages of the source. Starred links: 1 amine or outer side, 2 acyl side, 3 side chain; linkers in the order of their positions; H or OH if unused. Non-standard residues stand in square brackets, D forms with d. Residues, ends and D or L forms follow the SMILES beside them. *: point of attachment. Bip = N[C@@H](Cc1ccc(-c2ccccc2)cc1)C(=O)O; 2Nal = N[C@@H](Cc1ccc2ccccc2c1)C(=O)O; βAsp = O=C(O)[C@H](CC(=O)[*:2])N[*:1]; Bta = N[C@@H](Cc1csc2ccccc12)C(=O)O; Cit = NC(=O)NCCC[C@H](N)C(=O)O; NH(3-hydroxypropyl) = OCCCN*; Suc = O=C(CCC(=O)[*:2])[*:1]

This experiment addresses T1, laminin/nidogen interaction (laminin P1, recombinantly produced human nidogen) (Homo sapiens, UniProt P14543).
T1 construct: made in house; host or cells: HEK-293
T1 sequence (P14543 29-1247): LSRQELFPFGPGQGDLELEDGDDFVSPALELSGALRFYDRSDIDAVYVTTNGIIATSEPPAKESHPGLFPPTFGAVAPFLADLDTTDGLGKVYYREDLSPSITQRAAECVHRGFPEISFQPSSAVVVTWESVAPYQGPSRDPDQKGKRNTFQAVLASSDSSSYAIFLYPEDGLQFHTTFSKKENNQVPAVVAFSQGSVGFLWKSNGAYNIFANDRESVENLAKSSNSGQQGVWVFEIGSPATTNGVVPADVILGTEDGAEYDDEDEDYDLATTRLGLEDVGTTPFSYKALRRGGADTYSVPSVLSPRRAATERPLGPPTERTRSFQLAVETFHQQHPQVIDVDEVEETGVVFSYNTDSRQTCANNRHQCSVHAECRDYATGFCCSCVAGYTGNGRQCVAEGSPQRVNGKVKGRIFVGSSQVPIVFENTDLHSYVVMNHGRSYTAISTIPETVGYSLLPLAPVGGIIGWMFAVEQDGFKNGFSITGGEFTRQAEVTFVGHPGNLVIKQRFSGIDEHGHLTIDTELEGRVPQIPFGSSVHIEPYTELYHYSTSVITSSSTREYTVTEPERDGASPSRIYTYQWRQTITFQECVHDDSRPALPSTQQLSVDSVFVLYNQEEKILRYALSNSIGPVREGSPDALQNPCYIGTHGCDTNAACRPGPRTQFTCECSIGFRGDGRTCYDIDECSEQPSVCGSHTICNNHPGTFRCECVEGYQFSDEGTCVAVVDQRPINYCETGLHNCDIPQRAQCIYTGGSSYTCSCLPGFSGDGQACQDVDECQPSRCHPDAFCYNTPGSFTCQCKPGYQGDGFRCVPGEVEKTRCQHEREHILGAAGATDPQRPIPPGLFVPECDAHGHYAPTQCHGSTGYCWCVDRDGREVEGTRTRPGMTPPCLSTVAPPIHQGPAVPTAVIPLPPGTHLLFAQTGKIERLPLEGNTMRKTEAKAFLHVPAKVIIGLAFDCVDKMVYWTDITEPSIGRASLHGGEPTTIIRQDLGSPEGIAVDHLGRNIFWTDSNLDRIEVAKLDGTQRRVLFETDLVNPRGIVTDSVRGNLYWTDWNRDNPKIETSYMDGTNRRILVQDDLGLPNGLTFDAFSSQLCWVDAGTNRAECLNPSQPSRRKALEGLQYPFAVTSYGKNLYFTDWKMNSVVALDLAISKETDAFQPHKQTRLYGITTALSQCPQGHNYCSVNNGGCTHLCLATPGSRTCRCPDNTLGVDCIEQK
Kind of experiment: HTS screening assay (time-resolved fluorescence), inhibition of laminin/nidogen binding. To be noted: read-out: IC50. As for the experimental part: 5) The compound stocks were preincubated with nidogen (10 μl compound stock to 90 μl nidogen solution) and the assay was performed as described in the attached protocol, yielding a final screening concentration of 2.7 μM per compound. The isolation of laminin P1 from human placenta, human nidogen from transfected HEK-293 cells and mouse laminin γ1III 3-5 from HEK-293 cells is described in WO 98/31709. 3.1.1. HTS screening assay (highly sensitive assay variant): Time-Resolved Fluorescence Assay Coating of test tubes Microtiter plates (for example FluoroNunc®) were coated with 75 μl of a 0.1 μg/ml solution of laminin P1 (in 0.159 g of Na2CO3, 0.293 g of NaHCO3, 0.02 g of NaN3/liter, pH 9.2) at room temperature for 1 hour. The solution was then tipped off, and free binding sites were blocked by incubation with 0.5% BSA (in 7.9 g of NaCl, 1.2 g of Na2HPO4, 0.31 g of KCl, 0.23 g of NaH2PO4, 0.04% Tween 20/liter, pH 7.2) at room temperature for 0.5 hour. Completion of the blocking reaction was followed by decantation of the solution and washing once with 250 μl of washing buffer (PBS/0.04% Tween). Sequential inhibition In parallel with the coating, a preincubation of 85-100 μl of a 0.25 nM nidogen solution (recombinantly produced human nidogen) with inhibitor or standard was carried out in a separate reaction vessel (1 hour at room temperature in 7.9 g of NaCl, 1.2 g of Na2HPO4, 0.31 g of KCl, 0.23 g of NaH2PO4, 0.04% Tween 20/liter, 0.5% BSA, pH 7.2). 75 μl of the preincubation (nidogen+inhibitor or standard) were transferred into the coated wells of the microtiter plate and incubated at room temperature for 1 hour. This was followed by washing twice with PBS/0.04% Tween. Detection of the bound nidogen took place by incubation (at room temperature) for 1 hour with 75 μl of a specific antibody preparation obtained from yolks of eggs from a chicken immunized with human nidogen. The IgY fraction was used in a dilution of 1:500 in PBS/0.04% Tween. The complex of nidogen and specifically bound antibodies was, after washing twice with PBS/0.04% Tween, detected by adding anti-chicken IgY-biotin (75 μl of a 1:2500 dilution; Promega, Madison, Wis. 53711, 608-274-4330). An incubation time of 1 hour and washing twice with PBS/0.04% Tween were followed for this purpose by incubation with streptavidin-europium (Wallac; 1 hour at room temperature) and washing twice with PBS/0.04% Tween. It was finally possible, after adding 100 μl of enhancement solution (Wallac) and shaking for 5 minutes, to measure a fluorescence signal in a Victor multilabel counter using the europium protocol. The relation between the amount, of bound nidogen in the solutions with inhibitor and that of nidogen without added inhibitor was found.

[1] abbreviates: results table 1.3, synthesized compounds 1 to 43.
Where [2] appears, read: hit structures recovered from the pentamer library screening.

Take `CC(C)[C@H](NC(=O)[C@H](CO)NC(=O)[C@H](CC(N)=O)NC(=O)[C@H](Cc1ccc2ccccc2c1)NC(=O)C[C@H](N)C(=O)O)C(=O)NCC(=O)NCCCO` [Compound 25, L-β-Aspartyl-L-3-(2-naphthyl)alanyl-L-asparaginyl-L-seryl-L-valyl-glycine-3-hydroxypropylamide] (βAsp-[2Nal]NSVG-{NH(3-hydroxypropyl)}): under setting [1], the IC50 was 230 nM.

For the compound `CC(C)[C@H](NC(=O)[C@H](C)NC(=O)[C@H](CC(N)=O)NC(=O)[C@H](Cc1ccc(-c2ccccc2)cc1)NC(=O)CCC(=O)O)C(N)=O` [Compound 36, Succinyl-L-3-(4-biphenyl)alanyl-L-asparaginyl-L-alanyl-L-valine-amide] (Suc-[Bip]NAV-NH2), the half-maximal inhibitory concentration (IC50) under setting [1] stood at 2830 nM.

In the case of `CC(C)[C@H](NC(=O)[C@H](CO)NC(=O)[C@H](CC(N)=O)NC(=O)[C@H](Cc1ccc2ccccc2c1)NC(=O)[C@@H](N)CC(=O)O)C(=O)NCC(=O)NCCCO` [Compound 4, L-Aspartyl-L-3-(2-naphthyl)alanyl-L-asparaginyl-L-seryl-L-valyl-glycine-3-hydroxypropylamide] (H-D[2Nal]NSVG-{NH(3-hydroxypropyl)}), the IC50 by setting is: under setting [2], 490 nM; under setting [1], 380 nM.

Consider `CC(C)[C@H](NC(=O)[C@H](C)NC(=O)[C@H](CC(N)=O)NC(=O)[C@H](Cc1csc2ccccc12)NC(=O)[C@@H](N)CC(=O)O)C(=O)NCC(=O)NCCCO` [Compound 13, L-Aspartyl-L-3-(3-benzothienyl)alanyl-L-asparaginyl-L-alanyl-L-valyl-glycine-3-hydroxypropylamide] (H-D[Bta]NAVG-{NH(3-hydroxypropyl)}), for which the concentration for half-maximal inhibition (IC50) under setting [1] stood at 7030 nM.

For `CC[C@H](C)[C@H](NC(=O)[C@H](CO)NC(=O)[C@H](CC(N)=O)NC(=O)[C@H](Cc1ccc2ccccc2c1)NC(=O)[C@@H](N)CC(=O)O)C(=O)NCC(=O)NCCCO` [Compound 7, L-Aspartyl-L-3-(2-naphthyl)alanyl-L-asparaginyl-L-seryl-L-isoleucyl-glycine-3-hydroxypropylamide] (H-D[2Nal]NSIG-{NH(3-hydroxypropyl)}), the IC50 is, setting by setting: under setting [2], 810 nM; under setting [1], 600 nM.

On to `CC(C)C(NC(=O)[C@H](C)NC(=O)[C@H](CC(N)=O)NC(=O)[C@H](Cc1ccc2ccccc2c1)NC(=O)CCC(=O)O)C(C)C` [Compound 39, Succinyl-L-3-(2-Naphthyl)alanyl-L-asparaginyl-L-alanine-2,4-dimethylpentylamide], for which the IC50 under setting [1] turned out to be 1500 nM.

Consider `CC(C)[C@H](NC(=O)[C@H](CO)NC(=O)[C@H](CC(N)=O)NC(=O)[C@H](Cc1ccc2ccccc2c1)NC(=O)[C@@H](N)CC(=O)O)C(=O)NCC(N)=O` [Compound 21, L-Aspartyl-L-3-(2-naphthyl)alanyl-L-asparaginyl-L-seryl-L-valyl-glycine-amide] (H-D[2Nal]NSVG-NH2), for which, under setting [1], the IC50 is 340 nM.

As to `CC(C)[C@H](NC(=O)[C@H](CO)NC(=O)[C@H](CC(N)=O)NC(=O)[C@H](Cc1ccc2ccccc2c1)NC(=O)[C@H](CC(=O)O)NC(=O)[C@@H](N)CCCNC(=N)N)C(=O)NCC(=O)NCCCO` [Compound 28, L-Arginyl-L-aspartyl-L-3-(2-naphthyl)alanyl-L-asparaginyl-L-seryl-L-valyl-glycine-3-hydroxypropylamide] (H-RD[2Nal]NSVG-{NH(3-hydroxypropyl)}), the IC50 under setting [1] came to 150 nM.

`CC(C)[C@H](NC(=O)[C@H](CO)NC(=O)[C@H](CC(N)=O)NC(=O)[C@H](Cc1ccc2ccccc2c1)NC(=O)[C@H](CC(=O)O)NC(=O)[C@@H](N)CCCCN)C(=O)NCC(=O)NCCCO` [Compound 29, L-Lysyl-L-aspartyl-L-3-(2-naphthyl)alanyl-L-asparaginyl-L-seryl-L-valyl-glycine-3-hydroxypropylamide] (H-KD[2Nal]NSVG-{NH(3-hydroxypropyl)}): under setting [1], the half-inhibitory concentration (IC50) was 240 nM.

Take `CC(C)[C@H](NC(=O)[C@H](CO)NC(=O)[C@H](CC(N)=O)NC(=O)[C@H](Cc1ccc2ccccc2c1)NC(=O)[C@H](CC(=O)O)NC(=O)[C@@H](N)CCCNC(N)=O)C(=O)NCC(=O)NCCCO` [Compound 27, L-Citrulyl-L-aspartyl-L-3-(2-naphthyl)alanyl-L-asparaginyl-L-seryl-L-valyl-glycine-3-hydroxypropylamide] (H-[Cit]D[2Nal]NSVG-{NH(3-hydroxypropyl)}): the half-maximal inhibitory concentration (IC50) under setting [1] amounted to 440 nM.

Take `CC(C)[C@H](NC(=O)[C@H](C)NC(=O)[C@H](CC(N)=O)NC(=O)[C@H](Cc1ccccc1)NC(=O)[C@@H](N)CC(=O)O)C(=O)NCC(=O)NCCCO` [Compound 11, L-Aspartyl-L-phenylalanyl-L-asparaginyl-L-alanyl-L-valyl-glycine-3-hydroxypropylamide] (H-DFNAVG-{NH(3-hydroxypropyl)}): the half-inhibitory concentration (IC50) under setting [1] amounted to 3380 nM.

`CC(C)[C@H](NC(=O)[C@H](C)NC(=O)[C@H](CC(N)=O)NC(=O)[C@@H]1CCCN1C(=O)[C@@H](N)CC(=O)O)C(=O)NCC(=O)NCCCO` [Compound 2, L-Aspartyl-L-prolyl-L-asparaginyl-L-alanyl-L-valyl-glycine-3-hydroxypropylamide, reference compound] (H-DPNAVG-{NH(3-hydroxypropyl)}): the IC50 under setting [1] worked out at 7700 nM.

For the compound `CC(C)[C@H](NC(=O)[C@H](C)NC(=O)[C@H](CC(N)=O)NC(=O)C1[C@@H](c2ccc3ccccc3c2)CCN1C(=O)CCC(=O)O)C(N)=O` (stereo in doubt) [Compound 34, Succinyl-L-(3R)-(2-naphthyl)prolyl-L-asparaginyl-L-alanyl-L-valine-amide], under setting [1], the half-maximal inhibitory concentration (IC50) was determined as 27 nM.

`CC(C)[C@H](NC(=O)[C@H](C)NC(=O)[C@H](CC(N)=O)NC(=O)[C@H](Cc1c[nH]c2ccccc12)NC(=O)[C@@H](N)CC(=O)O)C(=O)NCC(=O)NCCCO` [Compound 10, L-Aspartyl-L-tryptophanyl-L-asparaginyl-L-alanyl-L-valyl-glycine-3-hydroxypropylamide] (H-DWNAVG-{NH(3-hydroxypropyl)}): the IC50 under setting [1] turned out to be 8570 nM.

For `C[C@H](NC(=O)[C@H](CC(N)=O)NC(=O)[C@H](Cc1ccc2ccccc2c1)NC(=O)CCC(=O)O)C(=O)N1CCCC(C)(C)C1` [Compound 41, Succinyl-L-3-(2-Naphthyl)alanyl-L-asparaginyl-L-alanine-3,3-dimethylpiperidinylamide], the IC50 under setting [1] was 8170 nM.
